Measurements: patent US10238688B2, “Combination therapies for bladder cancer” (GENEDIA BIOTECH CO. LTD., priority 2015, dated 2019)

Tests used:
5637 = assay: MTT cell survival / IC50, 5637 cells; assay type: cell-based, human
Method: (§1) The clinical grade of the chemotherapeutics (NCI Dictionary of Cancer Terms) was provided by the First Affiliated Hospital of Harbin Medical University: Pirarubicin (Pi, Wanle, Shenzhen), Paclitaxel (Pa, Taiji, Sichuan), Adriamycin (Ad, Pfizer, Jiangsu), Epirubicin Hydrochloride (EH, Haizheng, Zhejiang), Hydroxycamptothecin (Hy, Lishizhen, Hubei), Cisplatin (Ci, Haosen, Jiangsu), Gemcitabine (Ge, Haosen, Jiangsu) and Mitomycin (Mi, Haizheng, Zhejiang). The drug induced cell death was determined by a thiazolyl […] (MTT, 490 nm reading) based cell proliferation assay in the cultured cells following treatment by various concentrations of drugs for 72 hours. The relative chemoresistance to each drug of all cell lines was calculated with the lowest IC50 as a reference. The overall chemoresistance of each cell line was described as “chemoresistance index”, the numerator of the total relative IC50 to all the drugs over the number of drugs to rank the overall resistance state of each cell line to the six chemotherapeutics collectively.
(§2) The relative IC50 (fold) of each drug of all nine cell lines was normalized to the lowest IC50 in the most sensitive cell line (FIG. 2G), to describe the single drug resistance of cell lines. The overall chemoresistance of each cell line, a “chemoresistance index” (the numerator of the total relative IC50 over the number of drugs) (FIG. 2G) were calculated to rank the overall resistance state of each cell line to this six chemotherapeutics.
(§3) Twenty six-drug combinations at the indicated doses were initially generated through a random number generator (using MATLAB MathWorks©, Natick, Mass., U.S.) (The upper half of Table 1). The cell survival (% over the not drug control) of treated cells was determined and then used for a calculation of the average cumulative cell survival (%, ACS: the sum of cell survival (%) per combination divided by the number of cell lines tested). ACS<30% was used to separate the effective from the not-effective combinations.

H-bc = assay: MTT cell survival / IC50, H-bc cells; assay type: cell-based, human
Method: as §1, §2, §3

EJ = assay: MTT cell survival / IC50, EJ cells; assay type: cell-based, human
Method: as §1, §2, §3

Biu87 = assay: MTT cell survival / IC50, Biu87 cells; assay type: cell-based, human
Method: as §1, §2, §3

SV-HUC-1 = assay type: cell-based
Method: as §1, §2

ER Stress pathway = assay: Cignal Finder dual-luciferase pathway reporter, ER Stress; assay type: cell-based, human; conditions: for Relative activity, ER Stress reporter: luc/Renluc relative to negative control reporter, single drug at 4 folds vs EH/Ci/Mi combination
Method: (§4) The pathway analysis was performed with Qiagen's Cignal Finder Pathway Reporter Array systems according to the manufacturer's instructions. The pathway-focused dual-luciferase reporter construct was a mixture of an inducible transcription factor responsive firefly luciferase reporter and constitutively expressing renilla construct. Transcriptional response element (TRE) sequence response elements to each specific transcriptional factor triggered by the different signaling pathways are positioned before the TATA box of firefly luciferase reporter gene. The extent of activity of the reporter reflects the level of activity of the particular signaling pathway. CMV controlled renilla expression vector is co-transfected into the cell as an internal control. Non-inducible reporter construct that lacks the transcriptional factor binding sequence and could not be induced by any transcription factors is used as a negative control. Cells transfected with CMV directed firefly luciferase reporter gene serve as a positive control. Briefly, cells seeded in 6-well plates were transfected with Cignal finder pathway arrays according to the manufacturer's instructions (Qiagen). Then cells were seeded onto 96-well plates. Ci (6000 ng/mL), Mi (800 ng/mL), or EH (1000 ng/mL) and Ci/Mi/EH combination (Ci, 1500 ng/mL, Mi, 800 ng/mL and EH, 1000 ng/m L) were then added to the cells 24 h post-transfection. After 6 h of incubation with the different drugs at 37° C., cells were lysed and a dual luciferase assay (for firefly and renilla luciferase) was performed using a PromegaGloMax 20/20 illuminometer. The firefly luciferase activities were normalized over the renilla luciferase activities after background activity determined by luciferase activities of negative controls was subtracted. A triple test of cell survival under these drug doses was also performed by MTT assay following 18 h incubation at 37° C. […]

Wnt pathway = assay: Cignal Finder dual-luciferase pathway reporter, Wnt; assay type: cell-based, human; parameters: key to Relative activity, Wnt reporter: firefly/renilla ratio, background (negative control) subtracted; conditions: for Relative activity, Wnt reporter: luc/Renluc relative to negative control reporter, single drug at 4 folds vs EH/Ci/Mi combination;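 as to digitalized pathway activity, Wnt: code −1 means repressed below 0.5-fold of 5637 cells or no-drug control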
Method: as §4

Notch pathway = assay: Cignal Finder dual-luciferase pathway reporter, Notch; assay type: cell-based, human; parameters: key to Relative activity, Notch reporter: firefly/renilla ratio, background (negative control) subtracted; conditions: for Relative activity, Notch reporter: luc/Renluc relative to negative control reporter, single drug at 4 folds vs EH/Ci/Mi combination;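 as to digitalized pathway activity, Notch: code −1 means repressed below 0.5-fold of 5637 cells or no-drug control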
Method: as §4

Structure (SMILES): N.N.[Cl][Pt][Cl] [Ci, (SP-4-2)-diamminedichloroplatinum(II)]
- Cell survival (%) (5637; 5637, Table S3, ng/ml: Pi 40, Pa 160, EH 250, Ci 1500, Mi 200, 1=Ci/Mi, 2=EH/Ci/Mi, 3=Pa/Ci/Mi, 4=Pi/Ci/Mi): 20.32%
- Single drug 4X Cell Survival (%) (5637; 5637, ng/ml: EH 1000, Ci 6000, Mi 800, Pi 160, Pa 640, Ge 20, EH/Ci/Mi regimen): 1.49%
- Cell survival 72 hours (5637; 5637 cells, Table 4 (A)): 2.23%
- ACS (%) (5637; 5637 cells, Table 4 (B)): 2.23%
- Cell survival 72 hours (H-bc; H-bc cells, Table 4 (A)): 1.61%
- ACS (%) (H-bc; H-bc cells, Table 4 (B)): 1.61%
- Cell survival (%) (H-bc; H-bc, Table S3, ng/ml: Pi 40, Pa 160, EH 250, Ci 1500, Mi 200, 1=Ci/Mi, 2=EH/Ci/Mi, 3=Pa/Ci/Mi, 4=Pi/Ci/Mi): 41.98%
- Single drug 4X Cell Survival (%) (H-bc; H-bc, ng/ml: EH 1000, Ci 6000, Mi 800, Pi 160, Pa 640, Ge 20, EH/Ci/Mi regimen): 1.61%
- Cell survival (%) (EJ; Table S3, ng/ml: Pi 40, Pa 160, EH 250, Ci 1500, Mi 200, 1=Ci/Mi, 2=EH/Ci/Mi, 3=Pa/Ci/Mi, 4=Pi/Ci/Mi): 32.34%
- Single drug 4X Cell Survival (%) (EJ; ng/ml: EH 1000, Ci 6000, Mi 800, Pi 160, Pa 640, Ge 20, EH/Ci/Mi regimen): 22.36%
- Cell survival (%) (Biu87; Biu87, Table S3, ng/ml: Pi 40, Pa 160, EH 250, Ci 1500, Mi 200, 1=Ci/Mi, 2=EH/Ci/Mi, 3=Pa/Ci/Mi, 4=Pi/Ci/Mi): 20.94%
- Single drug 4X Cell Survival (%) (Biu87; Biu87, ng/ml: EH 1000, Ci 6000, Mi 800, Pi 160, Pa 640, Ge 20, EH/Ci/Mi regimen): 12.93%
- Cell survival 72 hours (Biu87; Biu87 cells, Table 4 (A)): 12.93%
- ACS (%) (Biu87; Biu87 cells, Table 4 (B)): 12.93%
- Single drug 4X Cell Survival (%) (SV-HUC-1; SV-HUC-1, ng/ml: EH 1000, Ci 6000, Mi 800, Pi 160, Pa 640, Ge 20, EH/Ci/Mi regimen): 26.21%
- Cell survival 72 hours (SV-HUC-1; SV-HUC-1 cells, Table 4 (A)): 26.21%
- ACS (%) (SV-HUC-1; SV-HUC-1 cells, Table 4 (B)): 26.21%
- relative drug trigged pathway activity over the no-drug level, ER Stress (ER Stress pathway; 5637 cells): 1.82 fold
- Relative activity, ER Stress reporter (ER Stress pathway; 5637 cells): 47.45
- digitalized pathway activity, ER Stress (ER Stress pathway; Biu87 cells): 0 (null (0) if neither of the above holds)
- relative drug trigged pathway activity over the no-drug level, ER Stress (ER Stress pathway; Biu87 cells): 0.83 fold
- Relative activity, ER Stress reporter (ER Stress pathway; Biu87 cells): 18.10
- digitalized pathway activity, ER Stress (ER Stress pathway; H-bc cells): 0 (null (0) if neither of the above holds)
- relative drug trigged pathway activity over the no-drug level, ER Stress (ER Stress pathway; H-bc cells): 0.82 fold
- Relative activity, ER Stress reporter (ER Stress pathway; H-bc cells): 101.61
- digitalized pathway activity, ER Stress (ER Stress pathway; SV-HUC-1 cells): 0 (null (0) if neither of the above holds)
- relative drug trigged pathway activity over the no-drug level, ER Stress (ER Stress pathway; SV-HUC-1 cells): 1.12 fold
- Relative activity, ER Stress reporter (ER Stress pathway; SV-HUC-1 cells): 115.00
- digitalized pathway activity, ER Stress (ER Stress pathway; UM-UC-3 cells): 0 (null (0) if neither of the above holds)
- Relative activity, ER Stress reporter (ER Stress pathway; UM-UC-3 cells): 67.50
- relative drug trigged pathway activity over the no-drug level, ER Stress (ER Stress pathway; Um-Uc-3 cells): 0.83 fold
- digitalized pathway activity, Wnt (Wnt pathway; 5637 cells): 0 (null (0) if neither of the above holds)
- relative drug trigged pathway activity over the no-drug level, Wnt (Wnt pathway; 5637 cells): 1.14 fold
- Relative activity, Wnt reporter (Wnt pathway; 5637 cells): 1.00
- relative drug trigged pathway activity over the no-drug level, Wnt (Wnt pathway; Biu87 cells): 0.41 fold
- Relative activity, Wnt reporter (Wnt pathway; Biu87 cells): 0.69
- digitalized pathway activity, Wnt (Wnt pathway; H-bc cells): 0 (null (0) if neither of the above holds)
- relative drug trigged pathway activity over the no-drug level, Wnt (Wnt pathway; H-bc cells): 0.78 fold
- Relative activity, Wnt reporter (Wnt pathway; H-bc cells): 3.14
- digitalized pathway activity, Wnt (Wnt pathway; SV-HUC-1 cells): 0 (null (0) if neither of the above holds)
- relative drug trigged pathway activity over the no-drug level, Wnt (Wnt pathway; SV-HUC-1 cells): 1.25 fold
- Relative activity, Wnt reporter (Wnt pathway; SV-HUC-1 cells): 1.55
- Relative activity, Wnt reporter (Wnt pathway; UM-UC-3 cells): 1.73
- relative drug trigged pathway activity over the no-drug level, Wnt (Wnt pathway; Um-Uc-3 cells): 0.48 fold
- digitalized pathway activity, Notch (Notch pathway; 5637 cells): 0 (null (0) if neither of the above holds)
- relative drug trigged pathway activity over the no-drug level, Notch (Notch pathway; 5637 cells): 1.39 fold
- Relative activity, Notch reporter (Notch pathway; 5637 cells): 1.41
- relative drug trigged pathway activity over the no-drug level, Notch (Notch pathway; Biu87 cells): 0.5 fold
- Relative activity, Notch reporter (Notch pathway; Biu87 cells): 2.23
- relative drug trigged pathway activity over the no-drug level, Notch (Notch pathway; H-bc cells): 0.31 fold
- Relative activity, Notch reporter (Notch pathway; H-bc cells): 1.60
- digitalized pathway activity, Notch (Notch pathway; SV-HUC-1 cells): 0 (null (0) if neither of the above holds)
- relative drug trigged pathway activity over the no-drug level, Notch (Notch pathway; SV-HUC-1 cells): 1.44 fold
- Relative activity, Notch reporter (Notch pathway; SV-HUC-1 cells): 6.20
- digitalized pathway activity, Notch (Notch pathway; UM-UC-3 cells): 0 (null (0) if neither of the above holds)
- Relative activity, Notch reporter (Notch pathway; UM-UC-3 cells): 4.99
- relative drug trigged pathway activity over the no-drug level, Notch (Notch pathway; Um-Uc-3 cells): 1.01 fold
